# Laboratory results taken from patent publication US20040176431A1, “Antiproliferative 2-(sulfo-phenyl)-aminothiazole derivatives and pharmaceutical compositions, and methods for their use” (Pfizer, Inc., priority 2003, published 2004).
# Molecular target: T1, CDK4/cyclin D3 (Homo sapiens, UniProt P11802)
# T1 construct: made in house; host or cells: insect cells (baculovirus co-infection)
# Assay: Inhibition of CDK4/Cyclin D retinoblastoma kinase activity
# Assay type: biochemical
# Conditions: for inhibition at 0.1 µM: read-out: % Inhib CDK4/D @ 0.1 μM; for inhibition at 1 µM: read-out: % Inhib CDK4/D @ 1 μM; for inhibition at 0.03 µM: read-out: % Inhib CDK4/D @ 0.03
# Description: Cyclin-dependent kinase activity was measured by quantifying the enzyme-catalyzed, time-dependent incorporation of radioactive phosphate from [^32P]ATP or [^33P]ATP into a protein substrate. Unless noted otherwise, assays were performed in 96-well plates in a total volume of 50 μL, in the presence of 10 mM HEPES (N-[2-hydroxyethyl]piperazine-N′-[2-ethanesulfonic acid]) (pH 7.4), 10 mM MgCl2, 25 μM adenosine triphosphate (ATP), 1 mg/mL ovalbumin, 5 μg/mL leupeptin, 1 mM dithiothreitol, 10 mM β-glycerophosphate, 0.1 mM sodium vanadate, 1 mM sodium fluoride, 2.5 mM ethylene glycol-bis(β-aminoethyl ether)-N,N,N′N′-tetraacetic acid (EGTA), 2% (v/v) dimethylsulfoxide, and 0.03-0.4 μCi [^32/33P]ATP per reaction. Reactions were initiated with enzyme, incubated at 30° C., and terminated after 20 minutes by the addition of ethylenediaminetetraacetic acid (EDTA) to 250 mM. The phosphorylated substrate was then captured on a nitrocellulose or phosphocellulose membrane using a 96-well filtration manifold, and unincorporated radioactivity was removed by repeated washing with 0.85% phosphoric acid. Radioactivity was quantified by exposing the dried membranes to a phosphorimager.
# Inhibition was measured relative to control wells that contained all reaction components including 2% (v/v) DMSO but no compound, after subtraction of background radioactivity measured in the absence of enzyme. Apparent Ki values of discrete compounds were measured by assaying enzyme activity in the presence of different inhibitor compound concentrations and subtracting the background radioactivity measured in the absence of enzyme. The kinetic parameters (kcat, Km for ATP) were measured for each enzyme under the usual assay conditions by determining the dependence of initial rates on ATP concentration. Inhibition data were fit to an equation for competitive inhibition using Kaleidagraph (Synergy Software), or were fit to an equation for competitive tight-binding inhibition using the software KineTic (BioKin, Ltd.).
# A complex of human CDK4 and genetically truncated (1-264) cyclin D3 was purified using traditional biochemical chromatographic techniques from insect cells that had been co-infected with the corresponding baculovirus expression vectors (see e.g., Meijer and Kim, “Chemical Inhibitors of Cyclin-Dependent Kinases,” Methods in Enzymol., 283, 113-128 (1997)). The enzyme complex (5 nM) was assayed with 0.3-0.5 μg of purified recombinant retinoblastoma protein fragment (Rb) as a substrate. The engineered Rb fragment (residues 386-928 of the native retinoblastoma protein; 62.3 kDa) contains the majority of the phosphorylation sites found in the native 106-kDa protein, as well as a tag of six histidine residues for ease of purification. Phosphorylated Rb substrate was captured by microfiltration on a nitrocellulose membrane and quantified using a phosphorimager as described above. For measurement of tight-binding inhibitors, the assay duration was extended to 60 minutes, during which the time-dependence of product formation was linear and initial rate conditions were met.
# [1] = test compound at 1 μM (head line shifted: 'mM' printed beside 'Structure')
# [2] = test compound at 0.03 (unit cell empty, head line shifted; μM)
# T1 sequence (P11802 whole entry): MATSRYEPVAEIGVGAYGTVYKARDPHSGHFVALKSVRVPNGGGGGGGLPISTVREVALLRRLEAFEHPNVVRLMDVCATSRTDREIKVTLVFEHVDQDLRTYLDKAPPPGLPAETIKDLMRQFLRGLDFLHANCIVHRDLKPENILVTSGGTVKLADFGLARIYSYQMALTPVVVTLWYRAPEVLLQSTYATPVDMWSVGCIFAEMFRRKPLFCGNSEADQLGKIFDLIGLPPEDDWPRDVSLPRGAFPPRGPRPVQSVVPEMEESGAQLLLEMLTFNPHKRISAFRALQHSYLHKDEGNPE
# T1 sequence (P30281 1-264 partner limits assumed): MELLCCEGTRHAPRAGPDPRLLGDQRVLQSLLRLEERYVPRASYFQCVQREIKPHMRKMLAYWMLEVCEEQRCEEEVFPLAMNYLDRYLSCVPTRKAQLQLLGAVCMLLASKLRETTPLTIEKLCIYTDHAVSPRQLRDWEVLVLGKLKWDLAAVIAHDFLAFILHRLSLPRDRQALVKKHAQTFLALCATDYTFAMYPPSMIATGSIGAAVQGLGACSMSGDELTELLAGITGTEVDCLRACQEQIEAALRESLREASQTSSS
inhibition at 0.1 µM (test compound at 0.1 μM),inhibition at 1 µM [1],inhibition at 0.03 µM [2],"% Inhib CDK4/D @ 0.1 μM (test compound at 0.1 μM, 0.1 µM)","% Inhib CDK4/D @ 1 μM (test compound at 1 μM (head line shifted: 'mM' printed beside 'Structure'), 1 µM)",% Inhib CDK4/D @ 0.03 [2],SMILES
-19%,46.9%,-34%,–,–,–,CCN(CC)C(=O)CSc1ccc(Nc2nc(N)c(C(=O)c3c(Cl)cccc3Cl)s2)cc1 [DD(1)]
19%,74%,37%,–,–,–,Cc1noc(C)c1CSc1ccc(Nc2nc(N)c(C(=O)c3c(Cl)cccc3Cl)s2)cc1 [DD(2)]
0.2%,43.6%,8.1%,–,–,–,CC(CSc1ccc(Nc2nc(N)c(C(=O)c3c(Cl)cccc3Cl)s2)cc1)CN(C)C (stereo not drawn) [DD(3)]
11%,49.1%,5.4%,–,–,–,COC(=O)/C=C/CSc1ccc(Nc2nc(N)c(C(=O)c3c(Cl)cccc3Cl)s2)cc1 [DD(4)]
40%,85.2%,21%,–,–,–,Nc1nc(Nc2ccc(SCCCO)cc2)sc1C(=O)c1c(Cl)cccc1Cl [DD(5)]
20%,48%,22%,–,–,–,C=CCCSc1ccc(Nc2nc(N)c(C(=O)c3c(Cl)cccc3Cl)s2)cc1 [DD(6)]
31%,55%,11%,–,–,–,Nc1nc(Nc2ccc(SCCN3CCCC3)cc2)sc1C(=O)c1c(Cl)cccc1Cl [DD(7)]
43%,82.1%,16%,–,–,–,Nc1nc(Nc2ccc(SCc3ncon3)cc2)sc1C(=O)c1c(Cl)cccc1Cl [DD(8)]
-14%,40.3%,-28%,–,–,–,Nc1nc(Nc2ccc(SCC3CNC(=O)O3)cc2)sc1C(=O)c1c(Cl)cccc1Cl (stereo not drawn) [DD(9)]
6.6%,54.5%,2.6%,–,–,–,CN(C)CCCSc1ccc(Nc2nc(N)c(C(=O)c3c(Cl)cccc3Cl)s2)cc1 [DD(10)]
28%,78.1%,4.2%,–,–,–,Nc1nc(Nc2ccc(SCCN3CCCCC3)cc2)sc1C(=O)c1c(Cl)cccc1Cl [DD(11)]
19%,72%,3.9%,–,–,–,Nc1nc(Nc2ccc(SCC3CO3)cc2)sc1C(=O)c1c(Cl)cccc1Cl (stereo not drawn) [DD(12)]
4.7%,35.3%,0.6%,–,–,–,CC(C)CCSc1ccc(Nc2nc(N)c(C(=O)c3c(Cl)cccc3Cl)s2)cc1 [DD(13)]
41%,80%,18%,–,–,–,COCCSc1ccc(Nc2nc(N)c(C(=O)c3c(Cl)cccc3Cl)s2)cc1 [DD(14)]
53%,82%,38%,–,–,–,Nc1nc(Nc2ccc(SCC(=O)Nc3ccccc3)cc2)sc1C(=O)c1c(Cl)cccc1Cl [DD(15)]
-7%,56.2%,-9.4%,–,–,–,Nc1nc(Nc2ccc(SCC3CC3)cc2)sc1C(=O)c1c(Cl)cccc1Cl [DD(16)]
-3%,28.3%,-9.5%,–,–,–,COc1cccc(CSc2ccc(Nc3nc(N)c(C(=O)c4c(Cl)cccc4Cl)s3)cc2)c1 [DD(17)]
9.9%,70.6%,10%,–,–,–,Nc1nc(Nc2ccc(SCC3CCCO3)cc2)sc1C(=O)c1c(Cl)cccc1Cl (stereo not drawn) [DD(18)]
19%,82.9%,-3%,–,–,–,CN1CCCC1CCSc1ccc(Nc2nc(N)c(C(=O)c3c(Cl)cccc3Cl)s2)cc1 (stereo not drawn) [DD(19)]
6.8%,68.2%,4.2%,–,–,–,CC1(CSc2ccc(Nc3nc(N)c(C(=O)c4c(Cl)cccc4Cl)s3)cc2)CO1 (stereo not drawn) [DD(20)]
67%,85.5%,50%,–,–,–,NC(=O)CSc1ccc(Nc2nc(N)c(C(=O)c3c(Cl)cccc3Cl)s2)cc1 [DD(21)]
9.1%,56.2%,8.1%,–,–,–,CCOC(=O)CCSc1ccc(Nc2nc(N)c(C(=O)c3c(Cl)cccc3Cl)s2)cc1 [DD(22)]

inhibition at 0.1 µM (test compound at 0.1 μM),inhibition at 1 µM [1],inhibition at 0.03 µM [2],"% Inhib CDK4/D @ 0.1 μM (test compound at 0.1 μM, 0.1 µM)","% Inhib CDK4/D @ 1 μM (test compound at 1 μM (head line shifted: 'mM' printed beside 'Structure'), 1 µM)",% Inhib CDK4/D @ 0.03 [2],SMILES
37%,72.1%,19%,–,–,–,CC(C)OC(=O)CSc1ccc(Nc2nc(N)c(C(=O)c3c(Cl)cccc3Cl)s2)cc1 [DD(23)]
-3%,42.5%,-17%,–,–,–,CC(C)=CCSc1ccc(Nc2nc(N)c(C(=O)c3c(Cl)cccc3Cl)s2)cc1 [DD(24)]
0.4%,65.5%,-10%,–,–,–,CCCSc1ccc(Nc2nc(N)c(C(=O)c3c(Cl)cccc3Cl)s2)cc1 [DD(25)]
65%,87.5%,9%,–,–,–,COC(=O)CSc1ccc(Nc2nc(N)c(C(=O)c3c(Cl)cccc3Cl)s2)cc1 [DD(26)]
10%,58.7%,-2.6%,–,–,–,CN1CCCC(CSc2ccc(Nc3nc(N)c(C(=O)c4c(Cl)cccc4Cl)s3)cc2)C1 (stereo not drawn) [DD(27)]
51%,86.8%,19%,–,–,–,NC(=O)CCSc1ccc(Nc2nc(N)c(C(=O)c3c(Cl)cccc3Cl)s2)cc1 [DD(28)]
–,–,–,50%,87.2%,24%,NC(=O)CCSc1ccc(Nc2nc(N)c(C(=O)c3c(Cl)cccc3Cl)s2)cc1 [DD(29)]
13%,32.3%,3.1%,–,–,–,CC(C)CCCSc1ccc(Nc2nc(N)c(C(=O)c3c(Cl)cccc3Cl)s2)cc1 [DD(30)]
30%,59.7%,15%,–,–,–,CC(C)CCOC(=O)CSc1ccc(Nc2nc(N)c(C(=O)c3c(Cl)cccc3Cl)s2)cc1 [DD(31)]
14%,61.3%,5.5%,–,–,–,CN(C)CCSc1ccc(Nc2nc(N)c(C(=O)c3c(Cl)cccc3Cl)s2)cc1 [DD(32)]
21%,64.7%,8.1%,–,–,–,CCOCCSc1ccc(Nc2nc(N)c(C(=O)c3c(Cl)cccc3Cl)s2)cc1 [DD(33)]
52%,89.3%,32%,–,–,–,Nc1nc(Nc2ccc(SCC(O)CO)cc2)sc1C(=O)c1c(Cl)cccc1Cl (stereo not drawn) [DD(34)]
42%,76.8%,12%,–,–,–,Nc1nc(Nc2ccc(SCc3ccncc3)cc2)sc1C(=O)c1c(Cl)cccc1Cl [DD(35)]
18%,49.6%,9%,–,–,–,CCC(CC)CSc1ccc(Nc2nc(N)c(C(=O)c3c(Cl)cccc3Cl)s2)cc1 [DD(36)]
30%,74.3%,13%,–,–,–,CC(=O)OCCSc1ccc(Nc2nc(N)c(C(=O)c3c(Cl)cccc3Cl)s2)cc1 [DD(37)]
32%,57.8%,6.5%,–,–,–,CC(C)OC(=O)CCSc1ccc(Nc2nc(N)c(C(=O)c3c(Cl)cccc3Cl)s2)cc1 [DD(38)]
18%,68.4%,0.2%,–,–,–,Nc1nc(Nc2ccc(SCCN3CCOCC3)cc2)sc1C(=O)c1c(Cl)cccc1Cl [DD(39)]
23%,50.3%,-1.2%,–,–,–,CC(C)(CO)CSc1ccc(Nc2nc(N)c(C(=O)c3c(Cl)cccc3Cl)s2)cc1 [DD(40)]
33%,70.3%,28%,–,–,–,CCN(CC)C(=O)CSc1cccc(Nc2nc(N)c(C(=O)c3c(Cl)cccc3Cl)s2)c1 [DD(41)]
41%,63.7%,29%,–,–,–,Cc1noc(C)c1CSc1cccc(Nc2nc(N)c(C(=O)c3c(Cl)cccc3Cl)s2)c1 [DD(42)]
16%,71.3%,25%,–,–,–,CC(CSc1cccc(Nc2nc(N)c(C(=O)c3c(Cl)cccc3Cl)s2)c1)CN(C)C (stereo not drawn) [DD(43)]
